Measurements published in PubChem BioAssay (NCI).
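Each compound was tested at five concentrations against cells in 96-well plates for 48 hours. TGI denotes the concentration required for complete inhibition of growth.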

Assays:
Experiment in all cases: inhibition of tumour cell growth, NCI panel, 48 h
786-0 renal = test system: 786-0 renal
A549 NSCLC = test system: A549 NSCLC
CAKI-1 renal = test system: CAKI-1 renal
COLO 205 colon = test system: COLO 205 colon
DU-145 prostate = test system: DU-145 prostate
HCT-116 colon = test system: HCT-116 colon
HCT-15 colon = test system: HCT-15 colon
HS 578T breast = test system: HS 578T breast
HT29 colon = test system: HT29 colon
IGROV1 ovarian = test system: IGROV1 ovarian
M14 melanoma = test system: M14 melanoma
NCI-H23 lung = test system: NCI-H23 lung
OVCAR-3 ovarian = test system: OVCAR-3 ovarian
OVCAR-8 ovarian = test system: OVCAR-8 ovarian
PC-3 prostate = test system: PC-3 prostate
SF-295 CNS = test system: SF-295 CNS
SK-MEL-5 melanoma = test system: SK-MEL-5 melanoma
SK-OV-3 ovarian = test system: SK-OV-3 ovarian
SNB-75 CNS = test system: SNB-75 CNS
OVCAR-5 ovarian = test system: OVCAR-5 ovarian

Measured: TGI

CC(C)CCC[C@@H](C)C1CCC2[C@@H]3CCC4C[C@@H](NS(C)(=O)=O)CC[C@]4(C)C3CC[C@@]21C (stereo partly specified)
not listed: OVCAR-5 ovarian
> 100 µM: all other assays above

CC(C)[Si]1(C(C)C)OCC2OC(n3c(C(=O)c4ccccc4)cc(=O)[nH]c3=O)CC2O[Si](C(C)C)(C(C)C)O1 (stereo unspecified)
9.87 µM: 786-0 renal
10.8 µM: COLO 205 colon
6.13 µM: NCI-H23 lung
14 µM: SK-MEL-5 melanoma
9.95 µM: HCT-116 colon
10.1 µM: IGROV1 ovarian | OVCAR-5 ovarian
4.22 µM: HT29 colon
24.6 µM: DU-145 prostate
5.5 µM: HS 578T breast
4.43 µM: OVCAR-8 ovarian
5.09 µM: OVCAR-3 ovarian
7.89 µM: HCT-15 colon
6.22 µM: PC-3 prostate
20.5 µM: A549 NSCLC
13.8 µM: SF-295 CNS
17.9 µM: CAKI-1 renal
27.2 µM: SK-OV-3 ovarian
14.4 µM: M14 melanoma
6.7 µM: SNB-75 CNS

COc1cc(C(c2cccc3ccccc23)N2C(=O)CCC2C(=O)O)cc(OC)c1OC (stereo unspecified)
> 100 µM: all assays above

O=[N+]([O-])c1ccc(C2=NOC(c3ccc(Cl)cc3)N2C23CC4CC(CC(C4)C2)C3)cc1 (stereo unspecified)
not listed: OVCAR-5 ovarian
> 100 µM: all other assays above

O=C(c1ccccc1)c1ccc2c(c1)nc1n2C(c2c(F)cccc2F)SC1 (stereo unspecified)
55.9 µM: HT29 colon
61 µM: M14 melanoma
46.4 µM: COLO 205 colon
42.2 µM: HCT-116 colon
27.8 µM: SK-MEL-5 melanoma
96.2 µM: OVCAR-3 ovarian
99 µM: SNB-75 CNS
> 100 µM: all other assays above

COC1CC(C)([N+](=O)[O-])C(O)C(C)O1 (stereo unspecified)
> 100 µM: all assays above

CCOC(=O)c1nc2ccc(C(F)(F)F)cc2nc1Nc1ccc(F)cc1
82.9 µM: A549 NSCLC
73.8 µM: HS 578T breast
84.3 µM: SNB-75 CNS
not listed: SK-MEL-5 melanoma
> 100 µM: all other assays above

C=C1C(=O)O[C@H]2C/C(C)=C/CC[C@]3(C)CCC[C@](C)(CC[C@@H]12)O3
14.8 µM: COLO 205 colon
41.5 µM: PC-3 prostate
16.4 µM: 786-0 renal
15.2 µM: HT29 colon | OVCAR-8 ovarian
25.7 µM: CAKI-1 renal
14.5 µM: IGROV1 ovarian
48 µM: HS 578T breast
43.6 µM: SNB-75 CNS
18.5 µM: OVCAR-3 ovarian
13.8 µM: SK-MEL-5 melanoma
20.1 µM: HCT-116 colon
27.2 µM: NCI-H23 lung
not listed: M14 melanoma
> 50 µM: all other assays above

CCN(CC)CCCNc1ccc([N+](=O)[O-])c2nc3ccc(OC)cc3c(N)c12
3.65 µM: SNB-75 CNS
5.6 µM: OVCAR-8 ovarian
3.15 µM: HCT-15 colon
3.95 µM: HT29 colon
2.68 µM: HS 578T breast
4.03 µM: NCI-H23 lung
2.9 µM: 786-0 renal
2.67 µM: COLO 205 colon
2.49 µM: HCT-116 colon
> 6.1 µM: M14 melanoma
> 5.48 µM: SK-OV-3 ovarian
> 5.08 µM: IGROV1 ovarian
> 4.96 µM: DU-145 prostate
3.64 µM: SF-295 CNS
> 6.31 µM: OVCAR-3 ovarian
3.31 µM: PC-3 prostate
3.61 µM: A549 NSCLC
> 10 µM: all other assays above

C[C@@H]1CCC2C(C)(C)C(/C=C\C=O)C3(C)OC213 (stereo partly specified)
53.2 µM: SK-MEL-5 melanoma
55.4 µM: COLO 205 colon
44.5 µM: OVCAR-8 ovarian
62 µM: HT29 colon
75.6 µM: HS 578T breast
69.6 µM: OVCAR-5 ovarian
98.2 µM: HCT-116 colon
> 100 µM: all other assays above

CCO/C(O)=C(/C(=N)N1CCCC1)C(=O)Nc1cccc(Cl)c1
not listed: SK-MEL-5 melanoma
> 100 µM: all other assays above

COc1cc(C2c3[nH]c4ccccc4c3[C@@H](Nc3ccc(C#N)cc3)[C@H]3COC(=O)N23)cc(OC)c1O (stereo partly specified)
0.734 µM: SF-295 CNS
5.56 µM: HCT-15 colon
6.6 µM: PC-3 prostate
2.11 µM: HCT-116 colon
0.763 µM: SNB-75 CNS
> 10 µM: HT29 colon
1.78 µM: CAKI-1 renal
2.21 µM: OVCAR-3 ovarian
4.54 µM: OVCAR-5 ovarian
1.58 µM: M14 melanoma
0.933 µM: OVCAR-8 ovarian
0.321 µM: SK-MEL-5 melanoma
1.04 µM: SK-OV-3 ovarian
2.49 µM: HS 578T breast
3 µM: IGROV1 ovarian
> 3.81 µM: COLO 205 colon
2.55 µM: NCI-H23 lung
0.839 µM: DU-145 prostate
0.421 µM: A549 NSCLC
0.337 µM: 786-0 renal

N#Cc1ncn(CCO)c1N
> 100 µM: all assays above

NC(=O)NNCc1c(-c2ccccc2)no[n+]1[O-]
> 100 µM: all assays above

NC(N)=NS(=O)(=O)c1ccc(NNC(=O)c2cccc3c(=O)c4ccccc4[nH]c23)cc1
34.9 µM: M14 melanoma
87 µM: NCI-H23 lung
36.1 µM: SK-MEL-5 melanoma
59.4 µM: OVCAR-8 ovarian
50.5 µM: HCT-15 colon
94.6 µM: CAKI-1 renal
89.7 µM: PC-3 prostate
54.7 µM: COLO 205 colon
89.2 µM: SK-OV-3 ovarian
57.5 µM: OVCAR-3 ovarian
59.5 µM: HCT-116 colon
41.8 µM: HT29 colon
> 100 µM: all other assays above

Cc1cc(S(=O)(=O)Nc2n[nH]c(Nc3ccc4ccccc4c3)n2)c(S)cc1Cl
76.9 µM: SF-295 CNS
91 µM: CAKI-1 renal
69.9 µM: HS 578T breast
51.7 µM: OVCAR-3 ovarian
> 100 µM: all other assays above

CCN(CC)c1ccc2cc(C(=O)NCc3ccccc3)c(=N)oc2c1
> 88 µM: HS 578T breast
36 µM: HT29 colon
> 59.7 µM: COLO 205 colon
97 µM: NCI-H23 lung
> 100 µM: all other assays above

CC(=O)Oc1c(OC(C)C)c(C)c(O[Si](C(C)C)(C(C)C)C(C)C)c2[nH]c3ccccc3c12
> 100 µM: all assays above

NC(=O)C(=CNC(=S)Nc1ccc(S(=O)(=O)Nc2ccccn2)cc1)C(N)=O
> 100 µM: all assays above

CCN(CC)C(=S)SC1C(=O)NC(=O)NC1=O
not listed: M14 melanoma
> 100 µM: all other assays above

CN1N=C(c2ccccc2)C(C(c2ccccc2[N+](=O)[O-])C2C(=O)N(C)N=C2c2ccccc2)C1=O (stereo unspecified)
> 31.6 µM: IGROV1 ovarian
> 100 µM: all other assays above

CCN(CC)c1ccc(C2Nc3ccc4ccccc4c3C3=C2C(=O)CCC3)cc1 (stereo unspecified)
50.5 µM: SNB-75 CNS
34.4 µM: HS 578T breast
62.8 µM: DU-145 prostate
38.3 µM: OVCAR-8 ovarian
76.8 µM: 786-0 renal
not listed: IGROV1 ovarian | SK-MEL-5 melanoma
> 100 µM: all other assays above

CSc1nn(C)cc2nc(C)nc1-2
not listed: SK-OV-3 ovarian
> 100 µM: all other assays above
